Legend:
full-length human LSD1 = full-length human LSD1 (Homo sapiens (Human), UniProt O60341); test: In Vitro Enzyme Inhibition Assay - LSD-1 (TR-FRET); type: biochemical; conditions: 0.1 nM LSD1, H3K4me1-biotin peptide
Method: This assay determines the ability of a test compound to inhibit LSD1 demethylase activity.
The enzymatic assay of LSD1 activity is based on Time Resolved-Fluorescence Resonance Energy Transfer (TR-FRET) detection.
The ability of the compounds disclosed herein to inhibit LSD1 activity was quantified and the respective IC50 value was determined.

THP-1 (AML) cells = test: LSD1 CD11b Cellular Assay (flow cytometry); type: cell-based; conditions: Homo sapiens, 96 h; CD11b expression in THP-1 cells, 4 days incubation
Method: To analyze LSD1 inhibitor efficacy in cells, a CD11b flow cytometry assay was performed. LSD1 inhibition induces CD11b expression in THP-1 (AML) cells which can be measured by flow cytometry. […] LSD1 test compounds were serially diluted in DMSO. The dilutions were added to each well accordingly to a final concentration of 0.2% DMSO. The cells were incubated at 37 degrees Celsius in 5% CO2 for 4 days. 250 μL of each well was transferred to a well in a 96 well round bottom plate. The plate was centrifuged at 1200 rpm at 4 degrees Celsius in a Beckman Coulter Alegra 6KR centrifuge for 5 minutes. The media was removed leaving the cells at the bottom of the wells. The cells were washed in 100 μL cold HBSS (Hank's Balanced Salt Solution) plus 2% BSA (Bovine Serum Albumin) solution and centrifuged at 1200 rpm at 4 degrees Celsius for 5 minutes. The wash was removed. […] The cells were centrifuged and washed two times in 100 μl HBSS plus 2% BSA. After the final spin the cells were resuspended in 100 μL HBSS plus 2% BSA containing 1 ug/mL DAPI (4′,6-diamidino-2-phenylindole). The cells were then analyzed by flow cytometry in a BD FACSAria machine. Cells were analyzed for CD11b expression. The percent of CD11b expressing cells for each inhibitor concentration was used to determine an IC50 curve for each compound analyzed.

SMILES	IC50 (full-length human LSD1) [nM]	IC50 (THP-1 (AML) cells) [nM]
CNC1CCN(c2cnc(-c3cc4ncn(C(C)C)c4cc3F)c(-c3ccc(C#N)c(F)c3)n2)CC1 [Example 67, 2-fluoro-4-[3-(6-fluoro-1-propan-2-ylbenzimidazol-5-yl)-6-[4-(methylamino)piperidin-1-yl]pyrazin-2-yl]benzonitrile]	< 100	< 100
Cn1ccc2cc(-c3ncc(N4CCC(N)CC4)nc3-c3ccc(C#N)c(F)c3)cnc21 [Example 55, 4-[6-(4-aminopiperidin-1-yl)-3-{1-methyl-1H-pyrrolo[2,3-b]pyridin-5-yl}pyrazin-2-yl]-2-fluorobenzonitrile]	< 100	< 100
CNC1CCN(c2cnc(-c3ccc4c(c3)nnn4C)c(-c3ccc(C#N)c(F)c3)n2)CC1 [Example 56, 2-fluoro-4-{6-[4-(methylamino)piperidyl]-3-(1-methylbenzotriazol-5-yl)pyrazin-2-yl}benzenecarbonitrile]	< 100	< 100
CNC1CCN(c2cnc(-c3ccc4c(c3)ncn4C(C)C)c(-c3ccc(C#N)c(F)c3)n2)CC1 [Example 68, 2-fluoro-4-[6-[4-(methylamino)piperidin-1-yl]-3-(1-propan-2-ylbenzimidazol-5-yl)pyrazin-2-yl]benzonitrile]	< 100	< 100
CC(C)n1cnc2cc(-c3ncc(N4CCC(N)CC4)nc3-c3ccc(C#N)c(F)c3)c(F)c(F)c21 [Example 73, 4-[6-(4-aminopiperidin-1-yl)-3-(6,7-difluoro-1-propan-2-ylbenzimidazol-5-yl)pyrazin-2-yl]-2-fluorobenzonitrile]	< 100	< 100
CNC1CCN(c2cnc(-c3cc4ncn(C)c4c(F)c3F)c(-c3ccc(C#N)c(F)c3)n2)CC1 [Example 62, 4-[3-(6,7-difluoro-1-methylbenzimidazol-5-yl)-6-[4-(methylamino)piperidin-1-yl]pyrazin-2-yl]-2-fluorobenzonitrile]	< 100	< 100
Cn1nnc2cc(-c3ncc(N4CCC(N)CC4)nc3-c3ccc(C#N)c(F)c3)ccc21 [Example 53, 4-[6-(4-aminopiperidin-1-yl)-3-(1-methyl-1H-1,2,3-benzotriazol-5-yl)pyrazin-2-yl]-2-fluorobenzonitrile]	< 100	< 100
Cn1nnc2cc(-c3ncc(N4CCC(N)CC4)nc3-c3ccc(C#N)c(F)c3)cnc21 [Example 54, 4-[6-(4-aminopiperidin-1-yl)-3-{3-methyl-3H-[1,2,3]triazolo[4,5-b]pyridin-6-yl}pyrazin-2-yl]-2-fluorobenzonitrile]	< 100	< 100
CCn1cnc2cc(-c3ncc(N4CCC(NC)CC4)nc3-c3ccc(C#N)c(F)c3)c(F)cc21 [Example 69, 4-[3-(1-ethyl-6-fluorobenzimidazol-5-yl)-6-[4-(methylamino)piperidin-1-yl]pyrazin-2-yl]-2-fluorobenzonitrile]	< 100	< 100
CCn1cnc2cc(-c3ncc(N4CCC(N)CC4)nc3-c3ccc(C#N)c(F)c3)c(F)cc21 [Example 71, 4-[6-(4-aminopiperidin-1-yl)-3-(1-ethyl-6-fluorobenzimidazol-5-yl)pyrazin-2-yl]-2-fluorobenzonitrile]	< 100	< 100
Cn1cc2cc(-c3ncc(N4CCC(N)CC4)nc3-c3ccc(C#N)c(F)c3)ccc2n1 [Example 49, 4-[6-(4-aminopiperidin-1-yl)-3-(2-methyl-2H-indazol-5-yl)pyrazin-2-yl]-2-fluorobenzonitrile]	< 100	< 100
CNC1CCN(c2cnc(-c3cnc(N(C)C)nc3)c(-c3ccc(C#N)c(F)c3)n2)CC1 [Example 58, 4-{3-[2-(dimethylamino)pyrimidin-5-yl]-6-[4-(methylamino)piperidyl]pyrazin-2-yl}-2-fluorobenzenecarbonitrile]	< 100	< 100
CNC1CCN(c2cnc(-c3ccc(OC)c(F)c3)c(-c3ccc(C#N)c(F)c3)n2)CC1 [Example 63]	< 100	< 100
CNC1CCN(c2cnc(C#CC(C)(C)O)c(-c3ccc(C#N)c(F)c3)n2)CC1 [Example 66, 2-fluoro-4-[3-(3-hydroxy-3-methylbut-1-ynyl)-6-[4-(methylamino)piperidin-1-yl]pyrazin-2-yl]benzonitrile]	< 100	< 100
Cc1ccc(-c2nc3ccn(CC4(F)CCNC4)c3cc2-c2ccc(C#N)cc2)cc1 (centres unmarked) [Example 9, 4-[1-[(3-fluoropyrroridin-3-yl)methyl]-5-(4-methylphenyl)pyrrolo[3,2-b]pyridin-6-yl]benzonitrile]	< 100	100 to 1000
CNC1CCN(c2cnc(-c3cc4ncn(C)c4cc3F)c(-c3ccc(C#N)c(F)c3)n2)CC1 [Example 61, 2-fluoro-4-[3-(6-fluoro-1-methylbenzimidazol-5-yl)-6-[4-(methylamino)piperidin-1-yl]pyrazin-2-yl]benzonitrile]	< 100	< 100

Other lines, results leading:

IC50 (full-length human LSD1) [nM]	IC50 (THP-1 (AML) cells) [nM]	SMILES
< 100	< 100	CNC1CCN(c2cnc(-c3ccc4c(c3)ncn4C)c(-c3ccc(C#N)c(F)c3)n2)CC1 [Example 65, 2-fluoro-4-[6-[4-(methylamino)piperidin-1-yl]-3-(1-methylbenzimidazol-5-yl)pyrazin-2-yl]benzonitrile]
< 100	< 100	CNC1CCN(c2cnc(C#CC3(O)CCCC3)c(-c3ccc(C#N)c(F)c3)n2)CC1 [Example 64, 2-fluoro-4-[3-[2-(1-hydroxycyclopentyl)ethynyl]-6-[4-(methylamino)piperidin-1-yl]pyrazin-2-yl]benzonitrile]
< 100	< 100	CCn1cnc2cc(-c3ncc(N4CCC(N)CC4)nc3-c3ccc(C#N)c(F)c3)c(F)c(F)c21 [Example 74, 4-[6-(4-aminopiperidin-1-yl)-3-(1-ethyl-6,7-difluorobenzimidazol-5-yl)pyrazin-2-yl]-2-fluorobenzonitrile]
< 100	< 100	Cn1cc2ccc(-c3ncc(N4CCC(N)CC4)nc3-c3ccc(C#N)c(F)c3)cc2n1 [Example 52, 4-[6-(4-aminopiperidin-1-yl)-3-(2-methyl-2H-indazol-6-yl)pyrazin-2-yl]-2-fluorobenzonitrile]
< 100	< 100	CN(C)C1CCN(c2cnc(-c3ccc4nn(C)cc4c3)c(-c3ccc(C#N)c(F)c3)n2)CC1 [Example 60, 4-{6-[4-(dimethylamino)piperidyl]-3-(2-methyl(2H-indazol-5-yl))pyrazin-2-yl}-2-fluorobenzenecarbonitrile]
< 100	< 100	CC(C)n1cnc2cc(-c3ncc(N4CCC(N)CC4)nc3-c3ccc(C#N)c(F)c3)ccc21 [Example 72, 4-[6-(4-aminopiperidin-1-yl)-3-(1-propan-2-ylbenzimidazol-5-yl)pyrazin-2-yl]-2-fluorobenzonitrile]
< 100	< 100	CC(C)n1cnc2cc(-c3ncc(N4CCC(N)CC4)nc3-c3ccc(C#N)c(F)c3)c(F)cc21 [Example 70, 4-[6-(4-aminopiperidin-1-yl)-3-(6-fluoro-1-propan-2-ylbenzimidazol-5-yl)pyrazin-2-yl]-2-fluorobenzonitrile]
< 100	< 100	Cn1ncc2cc(-c3ncc(N4CCC(N)CC4)nc3-c3ccc(C#N)c(F)c3)ccc21 [Example 51, 4-[6-(4-aminopiperidin-1-yl)-3-(1-methyl-1H-indazol-5-yl)pyrazin-2-yl]-2-fluorobenzonitrile]
< 100	< 100	CNC1CCN(c2cnc(-c3ccc4nn(C)cc4c3)c(-c3ccc(C#N)c(F)c3)n2)CC1 [Example 50, 2-fluoro-4-[3-(2-methyl-2H-indazol-5-yl)-6-[4-(methylamino)piperidin-1-yl]pyrazin-2-yl]benzonitrile]
< 100	< 100	CNC1CCN(c2cnc(-c3cnc4c(cnn4C)c3)c(-c3ccc(C#N)c(F)c3)n2)CC1 [Example 59, 2-fluoro-4-{6-[4-(methylamino)piperidyl]-3-(1-methylpyrazolo[5,4-b]pyridin-5-yl)pyrazin-2-yl}benzenecarbonitrile]
< 100	< 100	Cn1cnc2cc(-c3ncc(N4CCC(N)CC4)nc3-c3ccc(C#N)c(F)c3)c(F)c(F)c21 [Example 75, 4-[6-(4-aminopiperidin-1-yl)-3-(6,7-difluoro-1-methylbenzimidazol-5-yl)pyrazin-2-yl]-2-fluorobenzonitrile]
< 100	< 100	CNC1CCN(c2cnc(-c3ccc(N(C)C)nc3)c(-c3ccc(C#N)c(F)c3)n2)CC1 [Example 57, 4-{3-[6-(dimethylamino)(3-pyridyl)]-6-[4-(methylamino)piperidyl]pyrazin-2-yl}-2-fluorobenzenecarbonitrile]

Source: patent US10543198B2 (Celgene Quanticel Research, Inc., priority 2014, dated 2020)
